Assay results reported in patent publication US20080234262A1 (Wyeth, priority 2007, published 2008).

Experiments:
PI3K = PI3K (Homo sapiens, UniProt P42336); test: Fluorescence polarization assay for PI3K; format: biochemical; settings: PI3Kα; read-out: PI3Kα IC50;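 note: PI3K kinase reaction on PIP2 with ATP, 30-60 min, product sensed by GST-GRP with red probe in fluorescence polarization (mP), controls without enzyme and at zero time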
breast line MDA468 = test: In vitro cell culture growth assay (MTS), MDA468; format: cell-based, human; settings: MDA468 cells, three days after drug treatment
Procedure, shortened: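 Growth measured as percent of same-plate vehicle control by MTS metabolic dye conversion (A490). Breast MDA468 and prostate LNCap cells, plated a day ahead, were exposed to compounds for 3 days.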

prostate line LNCap = test: In vitro cell culture growth assay (MTS), LNCap; format: cell-based, human; settings: LNCap cells, three days after drug treatment;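 note: viable cell density read by absorbance at 490 nm, growth expressed as percent of vehicle-treated cells on the same plate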

Sequence of PI3K (P42336 whole entry): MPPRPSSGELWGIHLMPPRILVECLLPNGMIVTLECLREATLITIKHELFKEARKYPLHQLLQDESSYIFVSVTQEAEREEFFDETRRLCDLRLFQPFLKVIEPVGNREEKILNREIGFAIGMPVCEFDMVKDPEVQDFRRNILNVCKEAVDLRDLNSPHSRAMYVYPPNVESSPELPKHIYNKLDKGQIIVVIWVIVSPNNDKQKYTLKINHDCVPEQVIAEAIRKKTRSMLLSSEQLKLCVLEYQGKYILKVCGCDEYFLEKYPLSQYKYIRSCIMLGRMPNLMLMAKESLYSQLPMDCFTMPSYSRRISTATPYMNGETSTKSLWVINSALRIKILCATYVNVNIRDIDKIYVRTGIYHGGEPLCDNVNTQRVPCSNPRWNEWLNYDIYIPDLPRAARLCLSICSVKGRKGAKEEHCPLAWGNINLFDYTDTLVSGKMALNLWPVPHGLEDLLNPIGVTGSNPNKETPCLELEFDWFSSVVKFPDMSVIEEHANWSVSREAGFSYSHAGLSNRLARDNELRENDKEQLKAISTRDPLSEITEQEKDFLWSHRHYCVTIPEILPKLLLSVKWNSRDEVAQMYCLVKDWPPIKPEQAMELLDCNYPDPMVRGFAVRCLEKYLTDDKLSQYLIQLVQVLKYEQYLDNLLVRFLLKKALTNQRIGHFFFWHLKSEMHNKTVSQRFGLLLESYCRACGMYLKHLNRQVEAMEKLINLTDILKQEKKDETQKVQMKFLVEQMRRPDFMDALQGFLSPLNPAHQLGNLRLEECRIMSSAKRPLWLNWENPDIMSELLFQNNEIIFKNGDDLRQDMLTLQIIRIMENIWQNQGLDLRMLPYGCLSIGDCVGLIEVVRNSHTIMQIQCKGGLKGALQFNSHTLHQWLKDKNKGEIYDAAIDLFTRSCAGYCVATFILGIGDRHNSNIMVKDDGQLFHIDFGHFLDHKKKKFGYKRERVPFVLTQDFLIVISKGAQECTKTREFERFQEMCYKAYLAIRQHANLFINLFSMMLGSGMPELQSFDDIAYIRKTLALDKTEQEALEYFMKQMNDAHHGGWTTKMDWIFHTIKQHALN
Sequence of PI3K (P27986 whole entry partner): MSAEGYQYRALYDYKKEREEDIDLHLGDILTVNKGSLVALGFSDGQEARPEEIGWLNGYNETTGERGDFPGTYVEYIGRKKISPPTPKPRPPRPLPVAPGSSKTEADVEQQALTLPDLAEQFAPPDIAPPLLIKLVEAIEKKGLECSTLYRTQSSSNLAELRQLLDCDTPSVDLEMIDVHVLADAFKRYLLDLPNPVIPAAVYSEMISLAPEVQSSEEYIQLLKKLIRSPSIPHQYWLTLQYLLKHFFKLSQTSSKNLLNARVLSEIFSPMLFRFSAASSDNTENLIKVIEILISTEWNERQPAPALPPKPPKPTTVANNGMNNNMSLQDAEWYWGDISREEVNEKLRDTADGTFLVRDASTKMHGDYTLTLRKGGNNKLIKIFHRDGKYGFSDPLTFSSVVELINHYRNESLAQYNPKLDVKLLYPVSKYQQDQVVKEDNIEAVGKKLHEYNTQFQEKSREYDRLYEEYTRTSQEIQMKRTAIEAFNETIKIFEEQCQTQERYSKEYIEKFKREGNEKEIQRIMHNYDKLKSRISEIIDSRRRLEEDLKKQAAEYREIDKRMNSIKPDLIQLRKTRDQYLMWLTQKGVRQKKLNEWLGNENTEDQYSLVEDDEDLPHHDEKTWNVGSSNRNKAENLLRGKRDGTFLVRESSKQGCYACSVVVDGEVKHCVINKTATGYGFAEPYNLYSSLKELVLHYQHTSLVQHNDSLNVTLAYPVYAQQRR

SMILES | IC50 (PI3K) [nM] | IC50 (prostate line LNCap; Homo sapiens, LNCaP, 72 h) [nM] | IC50 (prostate line LNCap) [nM] | IC50 (breast line MDA468; Homo sapiens, 72 h) [nM] | IC50 (breast line MDA468) [nM]
CNC(=S)Nc1ccc(-c2nc(N3CCOCC3)c3cnn(C4CCN(C(=O)OC(C)C)CC4)c3n2)cc1 [Compound 831, isopropyl 4-[6-(4-{[(methylamino)carbonothioyl]amino}phenyl)-4-morpholin-4-yl-1H-pyrazolo[3,4-d]pyrimidin-1-yl]piperidine-1-carboxylate] | 236 | 50 |  | 390 | 
CNC(=O)Nc1ccc(-c2nc(N3CCOCC3)c3cnn(C4CCN(C(=O)c5ccc(F)cc5)CC4)c3n2)cc1 [Example 361, 1-(4-{1-[1-(4-fluorobenzoyl)piperidin-4-yl]-4-morpholin-4-yl-1H-pyrazolo[3,4-d]pyrimidin-6-yl}phenyl)-3-methylurea] | 108 | 27 |  | 100 | 
CNC(=O)Nc1ccc(-c2nc(N3CCOCC3)c3cnn(C4CCN(Cc5ccccc5O)CC4)c3n2)cc1 [Compound 644, 1-(4-{1-[1-(2-hydroxybenzyl)piperidin-4-yl]-4-morpholin-4-yl-1H-pyrazolo[3,4-d]pyrimidin-6-yl}phenyl)-3-methylurea] | 36 |  | 60 |  | 320
Nc1ccnc(-c2nc(N3CCOCC3)c3cnn(-c4ccccc4)c3n2)c1 [Compound 437, 2-(4-morpholin-4-yl-1-phenyl-1H-pyrazolo[3,4-d]pyrimidin-6-yl)pyridin-4-amine] | 1460 | 60000 |  | 60000 | 
CNC(=O)Nc1ccc(-c2nc(N3CCOCC3)c3cnn(C4CCN(CC(F)(F)F)CC4)c3n2)cc1 [Compound 714, 1-methyl-3-(4-{4-morpholin-4-yl-1-[1-(2,2,2-trifluoroethyl)piperidin-4-yl]-1H-pyrazolo[3,4-d]pyrimidin-6-yl}phenyl)urea] | 186 |  | 56 |  | 320
CNC(=O)Nc1ccc(-c2nc(N3CCOCC3)c3cnn(C4CCN(C(=O)C(C)C)CC4)c3n2)cc1 [Compound 719, 1-{4-[1-(1-isobutyrylpiperidin-4-yl)-4-morpholin-4-yl-1H-pyrazolo[3,4-d]pyrimidin-6-yl]phenyl}-3-methylurea] | 148 |  | 150 |  | 250

Now from value to compound, other results behind:

IC50 (PI3K) [nM] | IC50 (prostate line LNCap; Homo sapiens, LNCaP, 72 h) [nM] | IC50 (prostate line LNCap) [nM] | SMILES | IC50 (breast line MDA468; Homo sapiens, 72 h) [nM] | IC50 (breast line MDA468) [nM]
74 | 205 |  | CC(C)(C)OC(=O)N1CCC(n2ncc3c(N4CCOCC4)nc(-c4ccc(NC(=O)Nc5ccccc5)cc4)nc32)CC1 [Compound 768, tert-butyl 4-(6-{4-[(anilinocarbonyl)amino]phenyl}-4-morpholin-4-yl-1H-pyrazolo[3,4-d]pyrimidin-1-yl)piperidine-1-carboxylate] | 710 | 
1140 |  | 250 | COC(=O)Nc1ccc(-c2nc(N3CCOCC3)c3cnn(C4CCN(C(=O)c5ccccc5F)CC4)c3n2)cc1 [Compound 687, methyl (4-{1-[1-(2-fluorobenzoyl)piperidin-4-yl]-4-morpholin-4-yl-1H-pyrazolo[3,4-d]pyrimidin-6-yl}phenyl)carbamate] |  | 480
42 | 52 |  | CNC(=O)Nc1ccc(-c2nc(N3CCOCC3)c3cnn(C4CCN(Cc5cccc(C)c5)CC4)c3n2)cc1 [Example 430, 1-methyl-3-(4-{1-[1-(3-methylbenzyl)piperidin-4-yl]-4-morpholin-4-yl-1H-pyrazolo[3,4-d]pyrimidin-6-yl}phenyl)urea] | 200 | 
158 | 650 |  | CN(C)CCCNC(=O)Nc1ccc(-c2nc(N3CCOCC3)c3cnn(C4CCN(Cc5ccccc5)CC4)c3n2)cc1 [Compound 516, 1-{4-[1-(1-benzylpiperidin-4-yl)-4-morpholin-4-yl-1H-pyrazolo[3,4-d]pyrimidin-6-yl]phenyl}-3-[3-(dimethylamino)propyl]urea] | 2000 | 
364 | 420 |  | CNC(=O)Nc1ccc(-c2nc(N3CCOCC3)c3cnn(C4CCN(Cc5cccnc5)CC4)c3n2)cc1Cl [Compound 730, 1-(2-chloro-4-{4-morpholin-4-yl-1-[1-(pyridin-3-ylmethyl)piperidin-4-yl]-1H-pyrazolo[3,4-d]pyrimidin-6-yl}phenyl)-3-methylurea] | 1800 | 
